The target of the first test is T1, Cdc7 (BEV coexpressed huCDC7/DBF4) (Homo sapiens, UniProt O00311).
T1 construct: made in house; host or cells: BEV (baculovirus expression vector) co-expression; insect cells are implied but no cell line is named
T1 sequence (O00311 whole entry): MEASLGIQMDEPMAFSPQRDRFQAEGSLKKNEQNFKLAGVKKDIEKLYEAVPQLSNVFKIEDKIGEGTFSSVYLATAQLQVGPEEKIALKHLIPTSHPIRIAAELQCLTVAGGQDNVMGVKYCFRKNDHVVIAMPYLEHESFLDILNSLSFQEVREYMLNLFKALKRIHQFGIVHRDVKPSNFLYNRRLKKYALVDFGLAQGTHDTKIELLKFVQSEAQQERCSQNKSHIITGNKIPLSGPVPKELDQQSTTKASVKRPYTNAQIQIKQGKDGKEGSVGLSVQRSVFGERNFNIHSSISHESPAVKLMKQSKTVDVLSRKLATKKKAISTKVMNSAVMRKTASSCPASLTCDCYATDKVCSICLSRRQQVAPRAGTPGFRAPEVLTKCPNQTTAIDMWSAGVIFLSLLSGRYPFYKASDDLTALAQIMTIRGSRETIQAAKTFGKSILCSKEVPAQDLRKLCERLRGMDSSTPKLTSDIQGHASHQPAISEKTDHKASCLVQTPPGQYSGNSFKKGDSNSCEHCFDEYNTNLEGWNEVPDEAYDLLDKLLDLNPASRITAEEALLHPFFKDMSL
T1 sequence (Q9UBU7 whole entry partner): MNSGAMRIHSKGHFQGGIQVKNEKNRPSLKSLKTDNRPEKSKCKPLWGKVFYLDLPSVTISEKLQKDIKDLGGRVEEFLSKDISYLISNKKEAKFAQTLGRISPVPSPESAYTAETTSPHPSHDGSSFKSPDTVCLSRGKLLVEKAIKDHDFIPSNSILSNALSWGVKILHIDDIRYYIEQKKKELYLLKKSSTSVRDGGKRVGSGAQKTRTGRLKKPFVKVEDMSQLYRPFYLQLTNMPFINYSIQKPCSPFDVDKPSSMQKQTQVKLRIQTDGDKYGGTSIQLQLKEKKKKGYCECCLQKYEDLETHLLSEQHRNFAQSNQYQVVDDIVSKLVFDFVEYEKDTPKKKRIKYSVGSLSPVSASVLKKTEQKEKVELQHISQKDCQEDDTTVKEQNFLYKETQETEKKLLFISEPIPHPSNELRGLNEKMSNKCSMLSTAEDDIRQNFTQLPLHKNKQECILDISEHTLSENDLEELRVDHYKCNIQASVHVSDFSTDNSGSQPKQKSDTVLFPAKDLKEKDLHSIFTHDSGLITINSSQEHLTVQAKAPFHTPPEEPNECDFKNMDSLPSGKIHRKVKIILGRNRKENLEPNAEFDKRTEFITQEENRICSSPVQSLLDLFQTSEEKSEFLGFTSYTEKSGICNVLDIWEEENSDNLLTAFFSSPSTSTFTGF
The test can be described thus: Cdc7 enzyme inhibition assay ([33P]ATP, biotinylated peptide substrate, FlashPlate). Type of test: biochemical. Particulars: Table 2; Comparative Example lacking the chloro substituent versus the chloro Example. As to the method: Cdc7 (BEV coexpressed huCDC7/DBF4) is prepared internally. Cdc7 assays are conducted as follows with final concentrations as listed. […] Reactions are quenched after 1 hr by the addition of 90 μL stop buffer (50 mM EDTA, 2M NaCl). […] (Ki) for exemplary compounds.
For `c1cnc2[nH]cc(-c3ccnc(NC4CCCCC4)c3)c2c1` [Comparative Example 1, N-cyclohexyl-4-(1H-pyrrolo[2,3-b]pyridin-3-yl)pyridin-2-amine, reference compound], the “Ki ratio comparisons (Ki Comparative Example/Ki Example)” value (“Ki ratio comparisons” below) was 10.

Turning to `Cc1cc(-c2c[nH]c3ncccc23)cc(NC2CCCCC2)n1` [Comparative Example 2, N-cyclohexyl-6-methyl-4-(1H-pyrrolo[2,3-b]pyridin-3-yl)pyridin-2-amine, reference compound], the “Ki ratio comparisons” value is listed as 14.

Take `Cc1cc(-c2c[nH]c3ncccc23)cc(NCc2ccccc2)n1` [Comparative Example 3, N-benzyl-6-methyl-4-(1H-pyrrolo[2,3-b]pyridin-3-yl)pyridin-2-amine, reference compound]: the “Ki ratio comparisons” value was 75.

As for `Cc1cc(-c2c[nH]c3ncccc23)cc(N[C@H]2CC[C@H](O)CC2)n1` [Comparative Example 4, Trans-4-{[6-methyl-4-(1H-pyrrolo[2,3-b]pyridin-3-yl)pyridin-2-yl]amino}cyclohexanol, reference compound], the “Ki ratio comparisons” value was determined as 54.

With `N#Cc1cc(-c2c[nH]c3ncccc23)cc(NC2CCCCC2)n1` [Comparative Example 5, 6-(cyclohexylamino)-4-(1H-pyrrolo[2,3-b]pyridin-3-yl)pyridine-2-carbonitrile, reference compound], the “Ki ratio comparisons” value amounted to 9.

For the compound `N#Cc1cc(-c2c[nH]c3ncccc23)cc(NCc2ccccc2)n1` [Comparative Example 6, 6-(benzylamino)-4-(1H-pyrrolo[2,3-b]pyridin-3-yl)pyridine-2-carbonitrile, reference compound], the “Ki ratio comparisons” value amounted to 5.

For `NC(=O)c1cc(-c2c[nH]c3ncccc23)cc(NCc2ccccc2)n1` [Comparative Example 7, 6-(benzylamino)-4-(1H-pyrrolo[2,3-b]pyridin-3-yl)pyridine-2-carboxamide, reference compound], the “Ki ratio comparisons” value was determined as 45.

Staying with this test, now noted: Table 3; enzyme inhibition data (Ki).
Consider `CS(=O)(=O)N[C@@H]1CCCC[C@H]1Nc1cc(-c2c[nH]c3ncccc23)cc(Cl)n1` (relative stereo) [Example 110, N-[(trans)-2-{[6-chloro-4-(1H-pyrrolo[2,3-b]pyridin-3-yl)pyridin-2-yl]amino}cyclohexyl]methanesulfonamide], for which the Ki (usually a dissociation constant, usually derived from enzyme kinetics or from competition with a known ligand) was less than 10 nM.

For `O=C(N[C@@H]1CCCC[C@H]1Nc1cc(-c2c[nH]c3ncccc23)cc(Cl)n1)C1CCN1` (relative stereo) [Example 120, N-[(trans)-2-{[6-chloro-4-(1H-pyrrolo[2,3-b]pyridin-3-yl)pyridin-2-yl]amino}cyclohexyl]azetidine-2-carboxamide], the Ki was less than 10 nM.

In turn, `CN1CCC(C(=O)N[C@H]2CC[C@H](Nc3cc(-c4c[nH]c5ncccc45)cc(Cl)n3)CC2)C1` (relative stereo) [Example 125, N-(trans-4-{[6-chloro-4-(1H-pyrrolo[2,3-b]pyridin-3-yl)pyridin-2-yl]amino}cyclohexyl)-1-methylpyrrolidine-3-carboxamide] gave a Ki of less than 10 nM.

Compound `N[C@H]1CCCC[C@H]1Nc1cc(-c2c[nH]c3ncccc23)cc(Cl)n1` (relative stereo) [Example 131, (cis)-N-[6-chloro-4-(1H-pyrrolo[2,3-b]pyridin-3-yl)pyridin-2-yl]cyclohexane-1,2-diamine] displayed a Ki of less than 10 nM.

As for `CS(=O)(=O)N[C@@H]1CCCC[C@@H]1Nc1cc(-c2c[nH]c3ncccc23)cc(Cl)n1` (relative stereo) [Example 132, N-[(cis)-2-{[6-chloro-4-(1H-pyrrolo[2,3-b]pyridin-3-yl)pyridin-2-yl]amino}cyclohexyl]methanesulfonamide], the Ki was less than 10 nM.

`CCN1CCC1C(=O)N[C@H]1CC[C@H](Nc2cc(-c3c[nH]c4ncccc34)cc(Cl)n2)CC1` (relative stereo) [Example 134, N-(trans-4-{[6-chloro-4-(1H-pyrrolo[2,3-b]pyridin-3-yl)pyridin-2-yl]amino}cyclohexyl)-1-ethylazetidine-2-carboxamide] returned a Ki of less than 10 nM.

Regarding `O=C(N[C@H]1CC[C@H](Nc2cc(-c3c[nH]c4ncccc34)cc(Cl)n2)CC1)C1CCN1C1CCCC1` (relative stereo) [Example 136, N-(trans-4-{[6-chloro-4-(1H-pyrrolo[2,3-b]pyridin-3-yl)pyridin-2-yl]amino}cyclohexyl)-1-cyclopentylazetidine-2-carboxamide], the Ki is less than 10 nM.

Compound `CN(C)[C@@H]1CCCC[C@@H]1Nc1cc(-c2c[nH]c3ncccc23)cc(Cl)n1` (relative stereo) [Example 140, (cis)-N′-[6-chloro-4-(1H-pyrrolo[2,3-b]pyridin-3-yl)pyridin-2-yl]-N,N-dimethylcyclohexane-1,2-diamine] displayed a Ki of less than 10 nM.

As for `O=S(=O)(N[C@H]1CC[C@H](Nc2cc(-c3c[nH]c4ncccc34)cc(Cl)n2)CC1)C1CCNC1` (relative stereo) [Example 151, N-(trans-4-{[6-chloro-4-(1H-pyrrolo[2,3-b]pyridin-3-yl)pyridin-2-yl]amino}cyclohexyl)pyrrolidine-3-sulfonamide], the Ki is less than 10 nM.

`NC1CCC(N[C@H]2CC[C@H](Nc3cc(-c4c[nH]c5ncccc45)cc(Cl)n3)CC2)CC1` (relative stereo) [Example 158, trans-N-(4-aminocyclohexyl)-N′-[6-chloro-4-(1H-pyrrolo[2,3-b]pyridin-3-yl)pyridin-2-yl]cyclohexane-1,4-diamine] gave a Ki of less than 10 nM.

Turning to `CCN1CCC(C(=O)N[C@H]2CC[C@H](Nc3cc(-c4c[nH]c5ncc(OC)cc45)cc(Cl)n3)CC2)C1` (relative stereo) [Example 219, N-(trans-4-{[6-chloro-4-(5-methoxy-1H-pyrrolo[2,3-b]pyridin-3-yl)pyridin-2-yl]amino}cyclohexyl)-1-ethylpyrrolidine-3-carboxamide], the Ki is less than 10 nM.

Turning to `CCN1CCC(C(=O)N[C@H]2CC[C@H](Nc3cc(-c4c[nH]c5ncccc45)cc(Cl)n3)CC2)C1` (relative stereo) [Example 326, N-(trans-4-{[6-chloro-4-(1H-pyrrolo[2,3-b]pyridin-3-yl)pyridin-2-yl]amino}cyclohexyl)-1-ethylpyrrolidine-3-carboxamide], the Ki is less than 10 nM.

In the case of `CN1CCC[C@H]1C(=O)N[C@H]1CC[C@H](Nc2cc(-c3c[nH]c4ncccc34)cc(Cl)n2)CC1` (relative stereo) [Example 336, N-(trans-4-{[6-chloro-4-(1H-pyrrolo[2,3-b]pyridin-3-yl)pyridin-2-yl]amino}cyclohexyl)-1-methylprolinamide], the Ki is less than 10 nM.

`CN1CCCCC1C(=O)N[C@H]1CC[C@H](Nc2cc(-c3c[nH]c4ncccc34)cc(Cl)n2)CC1` (relative stereo) [Example 337, N-(trans-4-{[6-chloro-4-(1H-pyrrolo[2,3-b]pyridin-3-yl)pyridin-2-yl]amino}cyclohexyl)-1-methylpiperidine-2-carboxamide] gave a Ki of less than 10 nM.

`CN1C(=O)CC[C@H]1C(=O)N[C@H]1CC[C@H](Nc2cc(-c3c[nH]c4ncccc34)cc(Cl)n2)CC1` (relative stereo) [Example 342, N-(trans-4-{[6-chloro-4-(1H-pyrrolo[2,3-b]pyridin-3-yl)pyridin-2-yl]amino}cyclohexyl)-1-methyl-5-oxoprolinamide] came in with a Ki of less than 10 nM.

`O=C(CNC1CN2CCC1CC2)N[C@H]1CC[C@H](Nc2cc(-c3c[nH]c4ncccc34)cc(Cl)n2)CC1` (relative stereo) [Example 351, N~2~-1-azabicyclo[2.2.2]oct-3-yl-N-(trans-4-{[6-chloro-4-(1H-pyrrolo[2,3-b]pyridin-3-yl)pyridin-2-yl]amino}cyclohexyl)glycinamide]: the Ki was less than 10 nM.

`CC1CCC(NCC(=O)N[C@H]2CC[C@H](Nc3cc(-c4c[nH]c5ncccc45)cc(Cl)n3)CC2)CC1` (relative stereo) [Example 354, N-(trans-4-{[6-chloro-4-(1H-pyrrolo[2,3-b]pyridin-3-yl)pyridin-2-yl]amino}cyclohexyl)-N~2~-(4-methylcyclohexyl)glycinamide] returned a Ki of less than 10 nM.

Turning to `O=C(NC1CCC(N[C@H]2CC[C@H](Nc3cc(-c4c[nH]c5ncccc45)cc(Cl)n3)CC2)CC1)OCc1ccccc1` (relative stereo) [Example 363, benzyl {4-[(trans-4-{[6-chloro-4-(1H-pyrrolo[2,3-b]pyridin-3-yl)pyridin-2-yl]amino}cyclohexyl)amino]cyclohexyl}carbamate], the Ki was less than 10 nM.

Turning to `CC(=O)NC1CCC(N(C(C)=O)[C@H]2CC[C@H](Nc3cc(-c4c[nH]c5ncccc45)cc(Cl)n3)CC2)CC1` (relative stereo) [Example 365, N-[4-(acetylamino)cyclohexyl]-N-(trans-4-{[6-chloro-4-(1H-pyrrolo[2,3-b]pyridin-3-yl)pyridin-2-yl]amino}cyclohexyl)acetamide], the Ki was less than 10 nM.

In turn, `CC(c1ccccc1)N1CC(C(=O)N[C@H]2CC[C@H](Nc3cc(-c4c[nH]c5ncccc45)cc(Cl)n3)CC2)C1` (relative stereo) [Example 396, N-(trans-4-{[6-chloro-4-(1H-pyrrolo[2,3-b]pyridin-3-yl)pyridin-2-yl]amino}cyclohexyl)-1-(1-phenylethyl)azetidine-3-carboxamide] gave a Ki of less than 10 nM.

`CCN1CCC(C(=O)N[C@H]2CC[C@H](Nc3nc(Cl)cc(-c4c[nH]c5ncccc45)n3)CC2)C1` (relative stereo) [Example 462, N-(trans-4-{[4-chloro-6-(1H-pyrrolo[2,3-b]pyridin-3-yl)pyrimidin-2-yl]amino}cyclohexyl)-1-ethylpyrrolidine-3-carboxamide] gave a Ki of less than 10 nM.
